Laboratory results as given in patent publication US20180142206A1, “REVERSION OF PRIMED PLURIPOTENT STEM CELLS TO NAIVE PLURIPOTENT STEM CELLS” (The J. David Gladstone Institutes, A Testamentary Trust …, priority 2015, published 2018).

Assays:
Xi-GFP mEpiSCs [1] = assay: Flow cytometric analysis of GFP and CD31 expression in Xi-GFP mEpiSCs; format: cell-based, mouse; conditions: for % of GFP/CD31 double positive cells compared with LIF alone: added to N2B27 medium containing LIF; for LIF induced Xi-reactivation (GFP/CD31 double positive cells): LIF-containing mEpiSC medium with or without Activin A and bFGF
Description: To more quantitatively assess the proportion of GFP positive cells under these three culture conditions, Fluorescence Activated Cell Sorting (FACS) was employed. For flow cytometric analyses, Xi-GFP mEpiSCs were dissociated into single cell suspensions with Accutase. The single cells were stained with a CD31 (PECAM) antibody (Clone MEC13.3/BD Bioscience (Franklin Lakes, N.J., USA)) conjugated with allophycocyanin, or APC. The stained cells were analyzed using MACSQuant VYB (Miltenyi Biotec, San Diego, Calif., USA) and FlowJo (FlowJo LLC, Ashland, Oreg., USA) software. […] In the LIF+2i and SNL-CM, the GFP^+ populations were also CD31^+, a marker for mouse naïve pluripotent stem cells (FIG. 1, panel C).
Xi-GFP mEpiSCs were dissociated with Accutase into single cell suspensions, and the single cells were seeded on a fibronectin-coated plate in the Activin A and bFGF-containing medium with two different cell densities (20,000 cells or 3,000 cells/well of a 6-well plate) one day before starting conversion experiments. Twenty-four hours after the seeding, fresh primed media was replenished as a negative control or changed to naïve medium. Assay medium was changed every 24 hours and GFP fluorescent was checked daily by microscopic inspection for eight (with 20,000 starting cells) to 13 days (with 3,000 starting cells).
The naïve media contained 1,000 units LIF (Millipore), 10 ng/ml BMP4 (R&D systems), 64 μg/ml L-ascorbic acid 2-phosphate (Sigma), 10 nM to 100 nM LPA (Avanti Polar Lipids (Alabaster, Ala., USA)), and/or 100 nM OMPT (Avanti Polar Lipids (Alabaster, Ala., USA)) in N2B27 basal medium purchased from StemCells Inc (Palo Alto, Calif., USA) or prepared in house for use in FIGS. 4 and 5. The in house N2B27 medium consists of 500 ml DMEM/F12+GlutaMax (Life Technologies (Carlsbad, Calif., USA), 500 ml Neurobasal medium (Life Technologies (Carlsbad, Calif., USA)), 5 ml N2 supplement (Life Technologies (Carlsbad, Calif., USA)), 10 ml B27 supplement (Life Technologies (Carlsbad, Calif., USA)), 666 μl 7.5% BSA Fraction V (Life Technologies (Carlsbad, Calif., USA)) and 5 ml GlutaMax (Life Technologies (Carlsbad, Calif., USA)/1 liter. At the end of the conversion experiments, the conversion efficiencies were evaluated by counting GFP^+ cell clusters or by flow cytometer.

hiPSCs [2] = assay: Reversion of primed hiPSCs containing episomal reprogramming factors in reversion media; format: cell-based, human; conditions: for conversion to cells with features of naïve pluripotency (dome shaped colonies): 1 μM OMPT, 10 ng/mL LIF in StemFit, no bFGF, TGF-β, laminin-511
Text: These naive-like cells formed three-dimensional dome shaped colonies characteristic of naïve pluripotent stem cells and very different from the colony morphology of primed hiPSCs. […] In addition, they provide the basis for further investigation of whether modulating the LPA-LPAR-RHO signaling axis can be used to generate and maintain human naïve pluripotent stem cells.

[3] = tested on: primed pluripotent stem cells; assay: Cell morphology/toxicity of primed PSCs grown in various concentrations of LPA or OMPT
Description: To optimize the concentration of LPA and OMPT, primed pluripotent stem cells were grown in various concentrations of LPA or OMPT.

hiPSCs [4] = assay: Reversion of primed integration-free hiPSCs in lipid containing reversion media; format: cell-based, human
Description: Human iPSCs were generated with episomal vectors expressing Oct4, Sox2, Klf4, myc, Lin28 and shRNA against […] using the methods described by Okita et al. (2011) Nature Methods 8(5):409-412. The hiPSCs were grown in primed media containing bFGF and TGF-β in StemFit basal medium (or mTeSR orE8). Primed hiPSCs were then switched to reversion media and cultured on laminin-511 under hypoxic conditions. The reversion media contained 10 ng/mL LIF, 10 ng/mL Activin A, 100 ng/mL bFGF, 1 μM PD0325901 MEK inhibitor, 1 μM CHIR99021 GSK3β inhibitor, and 2 mM N-acetyl cysteine in StemFit basal medium with various concentrations of lipids (2 μM OMPT, 1 μM OMPT, 1 μM OMPT+20 nM LPA, or no lipids). After 5 to 7 days, three-dimensional dome shaped colonies, characteristic of naïve pluripotent stem cells, were observed. […] The naïve cells also expressed NANOG, KLF4, KLF17 and TFCP2L1, markers for naïve human pluripotent stem cells (FIG. 9).

Xi-GFP mEpiSCs [5] = assay: Xi-reactivation in Xi-GFP mEpiSC reporter line, GFP positive clusters by fluorescence microscopy; format: cell-based, mouse; conditions: exogenous addition to SNL-CM and non-CM+LIF
Description: During somatic cell reprogramming the human Xi is reliably reactivated in hiPSCs reprogrammed on SNL feeder cells. […] It was first determined whether the culture conditions that promoted reactivation of the Xi during reprogramming also promoted Xi-reactivation of mouse EpiSCs, which are XaXi. Results of culturing an X-GFP mEpiSC reporter line, in which the green fluorescent protein (GFP) gene is located on the X-chromosome in different media were assayed by fluorescence microscopy. Gillich et al., (2012) Cell Stem Cell 10(4):[…], Bao et al., (2009) Nature 461(7268):1292-1295. Xi-GFP mEpiSCs were kindly provided by Drs. Azim Surani and Siqin Bao and were routinely maintained on a fibronectin (Sigma, St. Louis, Mo., USA)-coated plate (feeder free condition) in N2B27 basal medium (Ndiff 227 medium from StemCells Inc (Palo Alto, Calif., USA) and later from Clontech (Mountain View, Calif., USA) supplemented with 20 ng/ml Activin A (R&D systems (Minneapolis, Minn., USA)) and 12 ng/ml bFGF (Millipore (Billerica, Mass., USA)). Cells were passaged every two to three days at a 1:20 dilution from a previous culture after detached/scraped and dissociated with Accutase (Millipore (Billerica, Mass., USA)).
Cells remain GFP negative when cultured under feeder-free mEpiSC conditions, N2B27 medium containing Activin A and bFGF on fibronectin coated plates (FIG. 1, panels A and B). […]

Molecule: lysophosphatidic acid [LPA]
- induction of GFP^+ cells (Xi-GFP mEpiSCs [1]; N2B27, without LIF): induced GFP^+ cells, albeit less efficiently than with LIF
- conversion to cells with features of naïve pluripotency (dome shaped colonies) (hiPSCs [2]): converted to cells with characteristics of naïve PSCs
- NANOG expression of naive-like cells (hiPSCs [2]; antibody staining, FIG. 6): continue to express NANOG
- toxicity to primed pluripotent stem cells ([3]; 50 nM and 100 nM): toxic
- concentration at which cell toxicities were observed ([3]; FIG. 8): ≥ 10 nM

Molecule: O=C1O[C@H]([C@@H](O)CO)C(O)=C1O [ascorbic acid]
- % of GFP/CD31 double positive cells compared with LIF alone (Xi-GFP mEpiSCs [1]): increased

Molecule: Cc1noc(-c2ccc(CSCCC(=O)O)cc2)c1NC(=O)OC(C)c1ccccc1Cl (stereo not shown) [Ki16425]
- % of GFP^+ cells (Xi-GFP mEpiSCs [1]; added to medium containing LIF+LPA or LIF alone): significantly reduces

Molecule: CCCCCCCC/C=C\CCCCCCCC(=O)OC[C@H](COP(O)(O)=S)OC [OMPT, 1-oleoyl-2-methyl-sn-glycero-3-phosphothioate]
- conversion to cells with features of naïve pluripotency (dome shaped colonies) (hiPSCs [2]): cells with features of naïve pluripotency were observed
- time for which three-dimensional dome shaped colonies were maintained (hiPSCs [4]; 2 μM or 1 μM OMPT, or 1 μM OMPT+20 nM LPA, laminin-511, hypoxic, approximately five passages): more than one month
- conversion of hiPSCs to cells with characteristics of naïve PSCs (colony morphology) (hiPSCs [4]; compared to control media containing no lipids, FIG. 7): converts the hiPSCs to cells with characteristics of naïve PSCs

Molecule: NC(=O)c1ccc(-c2nc(-c3ccc4c(c3)OCO4)c(-c3ccccn3)[nH]2)cc1 [SB431542]
- % of GFP/CD31 double positive cells (Xi-GFP mEpiSCs [1]; added to MEF-CM containing LIF): enhances induction of the double positive cells

Molecule: bFGF: basic fibroblast growth factor
- LIF induced Xi-reactivation (GFP/CD31 double positive cells) (Xi-GFP mEpiSCs [1]): negative effects

B1: BMP4: bone morphogenetic protein (protein, UniProt P12644 293-408, looked up)
Bone morphogenetic protein 4: SPKHHSQRARKKNKNCRRHSLYVDFSDVGWNDWIVAPPGYQAFYCHGDCPFPLADHLNSTNHAIVQTLVNSVNSSIPKACCVPTELSAISMLYLDEYDKVVLKNYQEMVVEGCGCR
- % of GFP/CD31 double positive cells compared with LIF alone (Xi-GFP mEpiSCs [1]): dramatically increased
- GFP/CD31 double positive cells (Xi-GFP mEpiSCs [1]; alone in N2B27 basal medium (without bFGF or Activin A), data not shown): did not induce GFP/CD31 double positive cells

B2: Activin A: cytokine required for maintaining primed pluripotency in mEpiSCs (protein, UniProt Q04998 309-424, looked up)
Inhibin beta A chain: GLECDGKVNICCKKQFFVSFKDIGWNDWIIAPSGYHANYCEGECPSHIAGTSGSSLSFHSTVINHYRMRGHSPFANLKSCCVPTKLRPMSMLYYDDGQNIIKKDIQNMIVEECGCS
modifications: Inhibin beta A chain
- numbers of GFP+ clusters (Xi-GFP mEpiSCs [5]): significantly reduced
- LIF induced Xi-reactivation (GFP/CD31 double positive cells) (Xi-GFP mEpiSCs [1]): negative effects
